# Experimental data as given in US20080255207A1, “5-Thioxo-1,5-Dihydro-2H-Pyrrol-2-One Derivatives As Liver X Receptor Modulators” (ASTRAZENECA AB, priority 2005, published 2008).
# pEC50: −log10 of the molar value.
# Legend:
# [1] = target: T1, human LXRalpha (Homo sapiens, UniProt Q13133); assay: Transactivation (reporter gene) assay, GAL4-LXRalpha LBD luciferase in U2/OS cells; type: cell-based; details: U2/OS osteosarcoma cells, 48 h; T0901317 at 1 μM as 100% control
# T1 construct: human LXRalpha (amino acid 205-447); expressed in transfected cells; host or cells: U2/OS osteosarcoma cells, electroporated with pSGGAL-LXRalpha
# T1 sequence (Q13133 205-447): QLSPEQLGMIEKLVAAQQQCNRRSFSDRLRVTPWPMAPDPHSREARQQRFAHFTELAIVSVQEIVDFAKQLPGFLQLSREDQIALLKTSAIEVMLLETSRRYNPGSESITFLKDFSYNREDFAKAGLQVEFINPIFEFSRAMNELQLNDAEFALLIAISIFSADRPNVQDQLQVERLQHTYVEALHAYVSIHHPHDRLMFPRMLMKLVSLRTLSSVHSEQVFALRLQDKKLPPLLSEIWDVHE
# Procedure: (§1) Expression vectors were prepared by inserting the ligand binding domain cDNA (complementary DNA) of human LXRalpha (amino acid 205447) and LXRbeta (amino acid 216-461) in frame with, 3′ to the yeast GAL4 transcription factor DNA binding domain and the nuclear localization signal from the T-antigen of Polyoma Virus in the eucaryotic expression vector pSG5 (Stratagene). The resulting expression vectors pSGGAL-LXRalpha and pSGGAL-LXRbeta were used in cotransfection experiments together with the pGL3 luciferase reporter plasmid containing a minirnal SV40 promoter and five copies of the UAS GAL4 recognition site. 2.5 μg pSGGAL-LXRalpha or beta were mixed with 25 μg pGL3 5×UAS and 22.5 μg pBluscript in 0.95 mL ice cold PBS containing approx. 4-9 milj. U2/OS osteosarcoma cells. After a five minute incubation on ice the cell/DNA mixture was electroporated in 0.4 cm cuvettes at 960 μF, 230 V using a BioRad electroporator and diluted to 0.32 milj cells/mL in complete DMEM (Dulbecco's Modified Eagle Medium) medium (Gibco 31966-021). Cells from at least two electroporations were pooled in order to avoid variations between different electroportations. […] Luciferase activity was measured using the “Luminescence 384 protocol” in the Wallac Victor reader after 15 min. incubation at room temperature. […]
# [2] = target: T2, human LXRbeta (Homo sapiens, UniProt P55055); assay: Transactivation (reporter gene) assay, GAL4-LXRbeta LBD luciferase in U2/OS cells; type: cell-based; details: U2/OS osteosarcoma cells, 48 h; T0901317 at 1 μM as 100% control
# T2 construct: LXRbeta (amino acid 216-461); expressed in transfected cells; host or cells: U2/OS osteosarcoma cells, electroporated with pSGGAL-LXRbeta
# T2 sequence (P55055 215-460 limits assumed): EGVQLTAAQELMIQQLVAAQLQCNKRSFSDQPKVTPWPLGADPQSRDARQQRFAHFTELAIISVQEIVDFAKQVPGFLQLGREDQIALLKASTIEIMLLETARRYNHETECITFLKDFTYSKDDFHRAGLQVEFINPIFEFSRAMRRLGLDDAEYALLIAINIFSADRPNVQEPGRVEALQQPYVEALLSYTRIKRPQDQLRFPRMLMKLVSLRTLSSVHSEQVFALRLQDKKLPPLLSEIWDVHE
# Procedure: as §1
smiles,measurement,setting,value
"Nc1ccc(CN2C(=O)C(Nc3ccc(OC(F)F)cc3)=C(c3ccccc3)C2=S)cn1 [Example 1, 1-[(6-aminopyridin-3-yl)methyl]-3-{[4-(difluoromethoxy)phenyl]amino}-4-phenyl-5-thioxo-1,5-dihydro-2H-pyrrol-2-one]",pEC50,[1],6.55
same,pEC50,[2],6.49
